Assay results as given in USRE35886E, “Phosphonic acid derivatives and use thereof” (Takeda Chemical Industries, Ltd., priority 1991, dated 1998).
Read-outs that look alike come from different tables or passages of the source. Where a SMILES comes first, the peptide text is derived from it. Where no end group is shown, it is not given here. [ ]: non-standard residue; d: D form. The star is where a group is joined. Sta = CC(C)C[C@H](N)[C@@H](O)CC(=O)O; Isovaleryl = CC(C)CC(=O)*

Columns and labels:
[1] = molecular target: T1, Endothelin-Converting Enzyme (Sus scrofa, UniProt A0A8W4FBH0); assay: Inhibition effect of various protease inhibitors on endothelin-converting enzyme; format: biochemical, pig; conditions: for inhibition at 1000 µM / inhibition at 100 µM: read-out: Inhibiting Ratio (%); for inhibition at 100 µM: Concentration 100 μM
T1 construct: 1.0% Triton X-100 was added to solubilize enzyme activity; from tissue; host or cells: pig lung, solubilised 100,000×G membrane fraction
T1 sequence (A0A8W4FBH0 1-751): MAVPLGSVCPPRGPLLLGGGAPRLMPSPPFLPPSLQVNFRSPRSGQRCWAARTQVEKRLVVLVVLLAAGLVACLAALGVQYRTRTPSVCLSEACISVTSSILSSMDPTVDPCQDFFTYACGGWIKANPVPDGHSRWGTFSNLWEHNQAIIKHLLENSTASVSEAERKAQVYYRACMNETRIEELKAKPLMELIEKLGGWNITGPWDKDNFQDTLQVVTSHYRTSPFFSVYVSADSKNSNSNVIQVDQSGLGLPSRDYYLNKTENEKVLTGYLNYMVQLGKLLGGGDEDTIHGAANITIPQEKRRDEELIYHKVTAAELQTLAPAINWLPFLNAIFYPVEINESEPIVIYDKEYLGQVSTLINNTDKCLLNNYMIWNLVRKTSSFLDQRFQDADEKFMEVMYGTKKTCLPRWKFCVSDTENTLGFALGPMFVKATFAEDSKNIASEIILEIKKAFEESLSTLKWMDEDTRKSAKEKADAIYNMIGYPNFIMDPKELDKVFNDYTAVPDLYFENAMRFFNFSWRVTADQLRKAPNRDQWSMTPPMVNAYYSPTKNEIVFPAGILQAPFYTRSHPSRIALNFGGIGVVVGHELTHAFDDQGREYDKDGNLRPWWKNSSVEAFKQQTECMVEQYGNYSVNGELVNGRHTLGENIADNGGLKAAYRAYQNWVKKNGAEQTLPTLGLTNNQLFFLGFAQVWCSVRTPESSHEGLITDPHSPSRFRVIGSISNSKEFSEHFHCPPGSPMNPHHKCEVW
Method: (§1) About 500 g of the pig lung (of one pig) was sliced and disrupted in 2.0 liter of PBS supplemented with 0.05% sodium azide, 1.0 mM dithiothreitol, 1.0 mM PMSF, 1.0 μg/ml leupeptin, 1.0 μg/ml chymostatin, 1.0 μg/ml pepstatin A and 1.0 μM E-64, and then homogenized (1 minute×5 times) by a Polytron mixer ([…]). The centrifuged supernatant (240×G, 5 minutes) was further centrifuged at 10,000×G for 15 minutes, and the resulting supernatant was subjected to ultracentrifuge (100,000×G, 90 minutes) to obtain membrane fraction as a precipitate. To this precipitate, 1.0% Triton X-100 was added to solubilize enzyme activity. […] This was diluted to 2.0 mg of protein/ml to use for assaying the activity of enzyme inhibitors.

[2] = molecular target: T1, Endothelin-Converting Enzyme; assay: Measurement of endothelin-converting enzyme inhibiting activity of phosphonic acid derivatives (pig big endothelin I (1-39) substrate, endothelin I sandwich enzyme immunoassay); format: biochemical; conditions: 37° C., 1 hour, pH 7.2, pig lung solubilized membrane fraction
Method: Measurement of Endothelin-Converting Enzyme Inhibiting Activity of Phosphonic Acid Amide Derivatives
In 1.5-ml centrifugal tube (BIO-BIK), 80 μl of 50 mM bis-Trispropane-hydrochloric acid buffer (pH 7.2) supplemented with 1.0 mg/ml bovine serum albumin, 0.1M sodium chloride, 1.0 mM phenylmethanesulfonyl fluoride (PMSF, Wako Pure Cnemical Industries), 1.0 μg/ml leupeptin (Peptide Institute Inc.), 1.0 μg/ml chymostatin (Peptide Institute Inc.), 1.0 μg/ml pepstatin A (Peptide Institute Inc.), 1.0 μM E-64 (Peptide Institute Inc.), 1.0 μm thiorphan (Sigma) and 1.0 μM angiotensin-converting enzyme inhibitor [CV-5975, Inada et al., Japanese Journal of Pharmacology, 47, 135-141 (1988)], 5 μl of a sample solution to be tested (an aqueous solution or an aqueous solution containing 2% dimethyl sulfoxide) or 5 μl of distilled water for the control plot, and 10 μl of an endothelin-converting enzyme sample prepared as described in the following reference example were placed. After standing at 37° C. for 30 minutes, 5 μl of a substrate solution [physiological phosphate buffer (PBS, containing 0.2 g of potassium chloride, 0.2 g of potassium dihydrogenphosphate, 8.0 g of sodium chloride and 1.14 g of disodium hydrogenphosphate in 1,000 ml of distilled water) supplemented with 1.0×10^-6 M pig big endothelin I (1-39) (Peptide Institute Inc.) and 1.0 mg/ml bovine serum albumin] was added thereto to initiate enzyme reaction. After reaction at 37° C. for 1 hour, the reaction mixture was boiled in boiling water for 5 minutes, thereby terminating the reaction: The resulting insoluble material was removed by centrifugation, and endothelin I (1-21) produced by the enzyme reaction contained in 10 μl of the supernatant was quantified by the endothelin I-specific sandwich enzyme immunoassay method already established [Suzuki et al., J. Immuno. Meth., 188, 245-250 (1989)], and compared with the amount of endothelin produced in the control plot to evaluate the enzyme inhibiting activity.
As endothelin-converting enzymes existing in organisms, two kinds of metalloenzymes different in enzymological properties are generally known. One exits in the cytoplasms, and the other is membrane-bound. The latter is characterized by that it is inhibited with phosphoramidon known as an inhibitor for metalloproteases [Matsumura et al., FEBS Lett., 272, 166-170 (1990)]. The endothelin-converting enzyme in the present invention means the membrane-bound enzyme of these two kinds of enzymes.
as §1

[3] = tested on: membrane-bound endothelin-converting enzyme; conditions: FEBS Lett., 272, 166-170 (1990); cited from earlier work
[4] = molecular target: T1, Endothelin-Converting Enzyme; assay: Kinetic coefficient (Lineweaver-Burk plot); format: biochemical; conditions: substrate pig big endothelin, read-out: Michaelis coefficient
Method: The Michaelis coefficient of this enzyme to pig big endothelin was calculated to be about 5×10^-6 M from the Lineweaver-Burk plot.

| Compound | IC50 [2] [nM] | further results |
| --- | --- | --- |
| c1cnc2c(c1)ccc1cccnc12 [o-Phenanthroline] |  | inhibition at 1000 µM ([1]; Concentration 1000 μM): 92% |
| CC(C)C[C@H](NP(=O)(O)CCc1ccccc1)C(=O)N[C@@H](Cc1c[nH]c2ccccc12)C(=O)O [N-(Phenethylphosphonyl)-Leu--Trp.2Na, N-(Phenethylphosphonyl)-Leu-Trp.2Na] | 200 |  |
| CC(C)[C@H](NP(=O)(O)CCc1ccccc1)C(=O)N[C@@H](Cc1c[nH]c2ccccc12)C(=O)O [N-(Phenethylphosphonyl)-Val--Trp.2Na, N-(Phenethylphosphonyl)-Val-Trp.2Na] | 2800 |  |
| CC(C)C[C@H](NP(=O)(O)Cc1ccc2ccccc2c1)C(=O)N[C@@H](Cc1c[nH]c2ccccc12)C(=O)O [N-(2-Naphthylmethylphosphonyl)-Leu-Trp.2Na] | 1000 |  |
| CC(C)CC(=O)N[C@H](C(=O)N[C@H](C(=O)N[C@@H](CC(C)C)[C@@H](O)CC(=O)N[C@@H](C)C(=O)N[C@@H](CC(C)C)[C@@H](O)CC(=O)O)C(C)C)C(C)C [Pepstatin] (Isovaleryl-VV[Sta]A[Sta]-OH) |  | inhibition at 100 µM [1]: 20% |
| CC(C)CCP(=O)(O)N[C@@H](CC(C)C)C(=O)N[C@@H](Cc1c[nH]c2ccccc12)C(=O)O [N-(Isoamylphosphonyl)-Leu--Trp.2Na, N-(Isoamylphosphonyl)-Leu-Trp.2Na] | 700 |  |
| CC(C)C[C@H](NP(=O)(O)O[C@@H]1O[C@@H](C)[C@H](O)[C@@H](O)[C@H]1O)C(=O)N[C@@H](Cc1c[nH]c2ccccc12)C(=O)O [Phosphoramidone] |  | inhibition at 100 µM [1]: 70%; inhibition of membrane-bound enzyme (in words) [3]: inhibited |
| O=C(O)CN(CCN(CC(=O)O)CC(=O)O)CC(=O)O [Ethylenediaminetetraacetic acid] |  | inhibition at 1000 µM [1]: 70% |
| CC(=O)N[C@@H](CC(C)C)C(=O)N[C@@H](CC(C)C)C(=O)N[C@H](C=O)CCCNC(=N)N [Leupeptin] |  | inhibition at 100 µM [1]: 23% |
| CC(C)C[C@H](NC(=O)[C@@H](NC(=O)N[C@@H](Cc1ccccc1)C(=O)O)[C@@H]1CCN=C(N)N1)C(=O)N[C@H](C=O)Cc1ccccc1 [Chymostatin] |  | inhibition at 100 µM [1]: 2% |
| pig big endothelin: substrate; pig big endothelin I (1-39) (Peptide Institute Inc.) (CSCSSLMDKECVYFCHLDIIWVNTPEHIVPYGLGSPSRS; ends and bridges not checked; cysteine pairing not given here; UniProt P09558 53-91, looked up, fragment) |  | Km [4]: ~5 µM |
| O[C@H](CS)[C@H](O)CS (racemic) [Dithiothreitol] |  | inhibition at 1000 µM ([1]; Concentration 1000 μM): 96% |
| O=S(=O)(F)Cc1ccccc1 [PMSF, phenylmethanesulfonyl fluoride] |  | Inhibiting Ratio (%) ([1]; Concentration 1000 μM): 32% |
| CC(C)C[C@H](NC(=O)[C@H]1O[C@@H]1C(=O)O)C(=O)NCCCCN=C(N)N [Example E-64] |  | inhibition at 100 µM [1]: 9% |
| O=C(O)[C@H](Cc1c[nH]c2ccccc12)NC(=O)[C@H](CC1CCCCC1)NP(=O)(O)CCc1ccccc1 [N-(Phenethylphosphonyl)-Cha--Trp.2Na, N-(Phenethylphosphonyl)-Cha-Trp.2Na] | 1000 |  |

Continued, in another order:

| IC50 [2] [nM] | Compound | further results |
| --- | --- | --- |
| 200 | CC(C)C[C@H](NP(=O)(O)Cc1cccc2ccccc12)C(=O)N[C@@H](Cc1c[nH]c2ccccc12)C(=O)O [N-(1-Naphthylmethylphosphonyl)-Leu-Trp.2Na] |  |
| 4800 | CC(C)C[C@H](NC(=O)[C@H](CC(C)C)NP(=O)(O)CCc1ccccc1)C(=O)O [N-(Phenethylphosphonyl)-Leu--Leu.2Na, N-(Phenethylphosphonyl)-Leu-Leu.2Na] |  |
| 5700 | CC(C)C[C@H](NP(=O)(O)CCc1ccccc1)C(=O)N[C@@H](Cc1ccccc1)C(=O)O [N-(Phenethylphosphonyl)-Leu--Phe.2Na, N-(Phenethylphosphonyl)-Leu-Phe.2Na] |  |
| 1400 | CCCC[C@H](NP(=O)(O)CCc1ccccc1)C(=O)N[C@@H](Cc1c[nH]c2ccccc12)C(=O)O [N-(Phenethylphosphonyl)-Nle--Trp.2Na, N-(Phenethylphosphonyl)-Nle-Trp.2Na] |  |
| 100 | CC(C)C[C@H](NP(=O)(O)CCc1ccc2ccccc2c1)C(=O)N[C@@H](Cc1c[nH]c2ccccc12)C(=O)O [N-[2-(2-Naphthyl)ethylphosphonyl]-Leu-Trp.2Na] |  |
| 1200 | CC[C@H](C)[C@H](NP(=O)(O)CCc1ccccc1)C(=O)N[C@@H](Cc1c[nH]c2ccccc12)C(=O)O [N-(Phenethylphosphonyl)-Ile--Trp.2Na, N-(Phenethylphosphonyl)-Ile-Trp.2Na] |  |
| 500 | O=C(O)[C@H](Cc1c[nH]c2ccccc12)NC(=O)[C@H](Cc1ccccc1)NP(=O)(O)CCc1ccccc1 [N-(Phenethylphosphonyl)-Phe--Trp.Na, N-(Phenethylphosphonyl)-Phe-Trp.2Na] |  |
| 400 | CC(C)C[C@H](NP(=O)(O)CCc1cccc2ccccc12)C(=O)N[C@@H](Cc1c[nH]c2ccccc12)C(=O)O [N-[2-(1-Naphthyl)ethylphosphonyl]-Leu-Trp.2Na] |  |
